Results: patent US20100215594A1, “Tyrosinase Inhibitors” (priority 2007, published 2010)

Target: tyrosinase from fungi
Experiment: Tyrosinase assay (L-DOPA as substrate, optical density at 470 nm)
Format: biochemical
Settings: tyrosinase from fungi (16U, Fluka), phosphate buffer pH 6.8, 10 min pre-incubation at 25° C., read-out: IC50 (concentration of the test compound at which 50% of the tyrosinase activity is inhibited)
Method: The action of the compounds I or Ia as skin lighteners is tested through their ability to inhibit the enzyme tyrosinase and thus to suppress melanin synthesis.
The inhibiting action of the compounds of the formula I or Ia against tyrosinase was assessed using tyrosinase from fungi and L-DOPA as substrate.
The compounds (1) and (2), as obtained in Example 1, and L-dopa are pre-incubated for 10 minutes at 25° C. in phosphate buffer (pH 6.8), and tyrosinase from fungi (16U) (Fluka) is subsequently added. The optical density of the samples is measured at 470 nm against a negative control (without active compound). Kojic acid and 4-hexylresorcinol are also tested as tyrosinase reference, i.e. positive control.
The results are shown in the following table, expressed in the IC50 value (the concentration of the test compound at which 50% of the tyrosinase activity is inhibited).

SMILES	IC50 [µM]
CCCCCCc1ccc(OC(=O)C2CCC(=O)N2)cc1O (stereo not drawn) [(1), 4-Hexyl-3-hydroxyphenyl 2-pyrrolidinone-5-carboxylate]	19
O=c1cc(CO)occ1O [Kojic acid]	12
CCCCCCc1ccc(O)cc1O [4-Hexylresorcinol]	0.5
